Source: ChEMBL document CHEMBL4680323, “'Proximity frequencies' a new parameter to evaluate the profile of GABAR modulators” (Bioorg Med Chem Lett, 2021)
The source made the active and inactive calls. The calls are words filed in the database; no cut-off is given here.

What was measured:
Assay type in all cases: cell-based
[1] = system: Oocyte; assay: Modulatory activity at GABAA alpha1/beta2/gamma2L (unknown origin) expressed in Xenopus laevis oocyte assessed as chloride current at 1 to 100 uM; conditions: Homo sapiens, dose 1-100 µM
[2] = system: Oocyte; assay: Antagonist activity at GABAA alpha1/beta2/gamma2L (unknown origin) expressed in Xenopus laevis oocyte assessed as reduction in lorazepam-induced chloride current at 100 uM relative to control; parameters: scale not given: the % may be the effect or the level left; conditions: Homo sapiens, filed as antagonist
[3] = system: Oocyte; assay: Agonist activity at GABAA alpha1/beta2/gamma2L (unknown origin) expressed in Xenopus laevis oocyte assessed as increase in chloride current at 30 uM relative to control; conditions: Homo sapiens, filed as agonist
[4] = system: Oocyte; assay: Inverse agonist activity at GABAA alpha1/beta2/gamma2L (unknown origin) expressed in Xenopus laevis oocyte assessed as reduction in chloride current at 30 uM relative to control; parameters: scale not given: the % may be the effect or the level left; conditions: Homo sapiens
[5] = system: Oocyte; assay: Inverse agonist activity at GABAA alpha1/beta2/gamma2L (unknown origin) expressed in Xenopus laevis oocyte assessed as reduction in chloride current at 100 uM relative to control; parameters: scale not given: the % may be the effect or the level left; conditions: Homo sapiens, filed as inverse agonist

| Structure (SMILES) | Activity [1] | Activity [2] | further results |
| --- | --- | --- | --- |
| COc1ccc2cnc3c(C(=O)NCC4CCCCC4)cnn3c2c1 | inactive | Active | – |
| COc1ccc2c(c1)-n1ncc(C(=O)Nc3ccccc3)c1NC2 | – | – | Activity [3]: 34% |
| COc1ccc2c(c1)-n1ncc(C(N)=O)c1NC2 | inactive | Active | – |
| COc1ccc2cnc3c(C(=O)NCc4ccccc4OC)cnn3c2c1 | inactive | Active | – |
| COc1ccc2cnc3c(C(=O)NC(C)C)cnn3c2c1 | inactive | Active | – |
| COc1ccc2c(c1)-n1ncc(C(=O)NC(C)C)c1NC2 | inactive | 90% | – |
| COc1ccc2cnc3c(C(=O)NCc4ccccc4)cnn3c2c1 | inactive | Active | – |
| COc1ccc2c(c1)-n1ncc(C(=O)NCC3CCCCC3)c1NC2 | inactive | Active | – |
| COc1ccc2cnc3c(C(=O)Nc4ccccc4)cnn3c2c1 | – | – | Activity [3]: 34% |
| COc1ccc2c(c1)-n1ncc(C(=O)NCc3ccccc3OC)c1NC2 | inactive | Active | – |
| COc1ccc2cnc3c(C(=O)NC4CCCCC4)cnn3c2c1 | – | – | Activity [4]: 19%; Activity [5]: 49% |
| COc1ccc2c(c1)-n1ncc(C(=O)NCc3ccccc3)c1NC2 | inactive | Active | – |
| COc1ccc2cnc3c(C(N)=O)cnn3c2c1 | inactive | Active | – |
| COc1ccc2cnc3c(C(=O)NCc4ccco4)cnn3c2c1 | – | – | Activity [3]: Active |
| COc1ccc2c(c1)-n1ncc(C(=O)NCc3ccco3)c1NC2 | – | – | Activity [3]: Active |
| COc1ccc2c(c1)-n1ncc(C(=O)NC3CCCCC3)c1NC2 | inactive | Active | – |
| COc1ccc2cnc3c(C(=O)NCc4cccs4)cnn3c2c1 | – | – | Activity [3]: 34% |
